# Values of other authors in patent US20160215053A1, “CXCL12 (CHEMOKINE (C-X-C MOTIF) LIGAND 12) AND IGFBP2 INHIBITORS FOR THE APPLICATION IN THE TREATMENT OF DIABETES MELLITUS ASSOCIATED PANCREATIC CANCER” (priority 2013, published 2016).
# “Also recorded” adds a separate entry of the source. Read-outs that look alike come from different tables or passages of the source. Where no end group is shown, it is not given here.
# What was measured:
# PSC = details: literature references 19-31
# BxPC3 cells = details: reference 40
Molecule,Effect on PSC (PSC),other results
CC=O [Acetaldehide],increased αSMA expression,–
CCO [Ethanol],type-1 collagen production; also recorded: increased αSMA expression,–
CCCCC[C@H](O)/C=C/[C@H]1[C@H](O)CC(=O)[C@@H]1C/C=C\CCCC(=O)O [Prosztaglandin E2],"increased proliferation, migration",–
Nc1ccn([C@@H]2O[C@H](CO)[C@@H](O)C2(F)F)c(=O)n1 [gemcitabine],–,"Proportion of cancer cells undergoing gemcitabine induced apoptosis (BxPC3 cells; BxPC3 cells treated with hPSC-CM): 9.4%; Proportion of cancer cells undergoing gemcitabine induced apoptosis (BxPC3 cells; BxPC3 cells, without hPSC-CM treatment): 38.9%"
Galektin-1: factor that induces PSC activation/trans-differentiation,increased proliferation,–
PDGF,–,Effect on PSC (PSC; cell proliferation): increased proliferation; Effect on PSC (PSC; fibronectin synthesis): increased FN synthesis
TGFα: factor that induces PSC activation/trans-differentiation,"increased proliferation, migration",–
TNFα,increased αSMA expression,–
bFGF: factor that induces PSC activation/trans-differentiation,increased proliferation,–
"gasztrin: factor that induces PSC activation/trans-differentiation (QGPWLEEEEEAYGWMDF; ends and bridges not checked; UniProt P01350 76-92, looked up)",–,"Effect on PSC (PSC; cell proliferation): decreased proliferation; Effect on PSC (PSC; collagen synthesis): increased collagen synthesis,"
"Activin A: factor that induces PSC activation/trans-differentiation (protein, UniProt P08476 311-426, looked up, Inhibin beta A chain) Inhibin beta A chain: GLECDGKVNICCKKQFFVSFKDIGWNDWIIAPSGYHANYCEGECPSHIAGTSGSSLSFHSTVINHYRMRGHSPFANLKSCCVPTKLRPMSMLYYDDGQNIIKKDIQNMIVEECGCS",increased αSMA expression,–
"IL-10: factor that induces PSC activation/trans-differentiation (protein, UniProt P22301 19-178, looked up) Interleukin-10: SPGQGTQSENSCTHFPGNLPNMLRDLRDAFSRVKTFFQMKDQLDNLLLKESLLEDFKGYLGCQALSEMIQFYLEEVMPQAENQDPDIKAHVNSLGENLKTLRLRLRRCHRFLPCENKSKAVEQVKNAFNKLQEKGIYKAMSEFDIFINYIEAYMTMKIRN",increased type-1 collagen production,–
"CCK: factor that induces PSC activation/trans-differentiation (peptide, UniProt P06307 21-115, looked up, Cholecystokinin) Cholecystokinin: QPVPPADPAGSGLQRAEEAPRRQLRVSQRTDGESRAHLGALLARYIQQARKAPSGRMSIVKNLQNLDPSHRISDRDYMGWMDFGRRSAEEYEYPS",–,"Effect on PSC (PSC; cell proliferation): decreased proliferation; Effect on PSC (PSC; collagen synthesis): increased collagen synthesis,"
